These results are taken from article PMC5641445 (Journal of medicinal chemistry, 2017).

Each structure is given as a SMILES string. pIC50: −log10 of the molar value. Counter-ions that a name gives are not always drawn.

One data set concerns the target bovine GRK5 (Bos taurus, UniProt P43249). Put plainly: GRK5 kinase inhibition. As to conditions: relative to paroxetine.
In data set [1] the target is mouse PKA catalytic subunits (Mus musculus, UniProt P05132). The experiment in a line: PKA inhibition, ADP-Glo Kinase Assay.
Data set [2] can be described thus: Metabolic stability in mouse liver microsomes. The class given is in vitro ADME. As to conditions: polar carboxamides on the paroxetine template. A general note: Liver microsomes are a subcellular fraction often used to study metabolism.
Data set [3] deals with mouse cardiomyocytes. The format is cell-based.
Data set [4] is described as follows: Abbreviated pharmacokinetic study in mice after IP administration. Particulars: for concentration at 30 min / concentration at 2 h / concentration at 4 h / concentration at 7 h: female, CD-1, mouse, plasma, ip, 10 mg/kg.
For another data set, the system named is GRK2. As to conditions: read-out: GRK2 IC50; Takeda compounds; cited from earlier work.
For data set [5], the system named is mouse cardiomyocytes. As to conditions: cited from earlier work.

Sequence of bovine GRK5 (P43249 whole entry): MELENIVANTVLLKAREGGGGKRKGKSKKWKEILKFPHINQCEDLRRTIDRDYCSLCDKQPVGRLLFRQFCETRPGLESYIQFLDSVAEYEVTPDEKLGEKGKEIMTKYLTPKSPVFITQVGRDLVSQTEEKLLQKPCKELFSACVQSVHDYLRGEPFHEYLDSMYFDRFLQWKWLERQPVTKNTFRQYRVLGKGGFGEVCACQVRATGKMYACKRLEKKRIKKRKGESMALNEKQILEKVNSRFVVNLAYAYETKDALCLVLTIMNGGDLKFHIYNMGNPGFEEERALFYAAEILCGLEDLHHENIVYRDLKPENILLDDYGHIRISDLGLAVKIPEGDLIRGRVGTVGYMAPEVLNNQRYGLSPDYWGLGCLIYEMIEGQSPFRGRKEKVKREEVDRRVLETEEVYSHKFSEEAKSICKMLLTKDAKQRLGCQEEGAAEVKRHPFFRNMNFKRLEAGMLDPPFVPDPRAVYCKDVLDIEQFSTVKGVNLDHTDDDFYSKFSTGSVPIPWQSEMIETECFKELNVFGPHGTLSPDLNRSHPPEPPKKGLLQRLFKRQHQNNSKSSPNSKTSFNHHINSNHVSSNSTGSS

Usually pIC50 stands for the IC50 on a negative log10 scale, so that one unit is a factor of ten. Take `O=C(NCc1ccccn1)c1cc([C@@H]2CCNC[C@H]2COc2ccc3c(c2)OCO3)ccc1F` [14ak, 5-((3S,4R)-3-((benzo[d][1,3]dioxol-5-yloxy)methyl)piperidin-4-yl)-2-fluoro-N-(pyridin-2-ylmethyl)benzamide hydrochloride]: the “increase in GRK5 potency” value on bovine GRK5 came to 5 fold. Also, the pIC50 in data set [1] was less than 4.00. The “metabolic stability in MLM, in words” value in data set [2] is on record as “substantial metabolic instability”. In addition, the “increase in contractility, in words” value in the data set with mouse cardiomyocytes [3] (at 0.5 μM or 1 μM) is on record as “did not show a significant increase in contractility”.

In data set [4], `O=C(NCc1ccn[nH]1)c1cc([C@@H]2CCNC[C@H]2COc2ccc3c(c2)OCO3)ccc1F` [14as, N-((1H-pyrazol-5-yl)methyl)-5-((3S,4R)-3-((benzo[d][1,3]dioxol-5-yloxy)methyl)piperidin-4-yl)-2-fluorobenzamide] had a concentration at 30 min of 2710 nM, a concentration at 2 h of 1440 nM, a concentration at 4 h of 270 nM and a concentration at 7 h of 43 nM. In data set [4] (mice, single IP administration 10 mg/kg), the “time with plasma concentration higher than GRK2 IC50 ([…] nM)” value is “over seven”. In data set [1], this compound had a pIC50 of less than 4.00. The “metabolic stability in MLM, in words” value in data set [2] is “substantial metabolic instability”. The “improvement in contractility efficacy over compound 4” value in the data set with mouse cardiomyocytes [3] was determined as 5 fold. Further, in the data set with mouse cardiomyocytes [3] (isoproterenol-stimulated), the “concentration giving improved contractility” value turned out to be 100 nM.

On to `Cn1c(CNc2cccc(C(=O)NCc3ccccc3C(F)(F)F)c2)nnc1-c1ccncc1` [compound 2, reference compound], for which the pIC50 in the data set with GRK2 is 7.52. In addition, the half-life in vivo result in data set [4] (CD-1 mice, IP 10 mg/kg, estimated from four time points) is “too low to quantify”. In data set [4], this compound returned a concentration at 30 min of 1830 nM, a concentration at 2 h of 32 nM, a concentration at 4 h of 5 nM and a concentration at 7 h of 6 nM.

As to `CC1=C(C(=O)Nc2ccc3[nH]ncc3c2)C(c2ccc(F)cc2)NC(=O)N1` (stereo not drawn) [compound 3], the “minimum dose needed to produce a significant contractility response” value with mouse cardiomyocytes [5] is 1 µM.

With `COc1cccc(OC)c1CNC(=O)c1cc(C2NC(=O)NC(C)=C2C(=O)Nc2ccc3[nH]ncc3c2)ccc1F` (stereo not drawn) [compound 4], the “lower concentration than paroxetine enhancing myocardial contractility” value in the data set on mouse cardiomyocytes [5] is on record as 20 fold.
